What follows are compounds tested against human PD-L1 / Human PD-1 (Homo sapiens (Human), UniProt Q9NZQ7) (assay: Enzyme-Linked Immunosorbent Assay (ELISA), PD-1/PD-L1 binding). Conditions: Table 2; plate-coated human PD-L1, biotinylated human PD-1; read-out: ELISA IC50.
How it was run: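 Human PD-L1 coated at 1 μg/mL overnight at 4° C; samples diluted 1:5 and incubated with human PD-1 and biotin (0.3 μg/mL) for 1 h at 37° C. Bound PD-1 detected with streptavidin-HRP and TMB (20 min, 37° C), acid-stopped, absorbance at 450 nm.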

Chain of human PD-L1 / Human PD-1 (Q9NZQ7 19-239): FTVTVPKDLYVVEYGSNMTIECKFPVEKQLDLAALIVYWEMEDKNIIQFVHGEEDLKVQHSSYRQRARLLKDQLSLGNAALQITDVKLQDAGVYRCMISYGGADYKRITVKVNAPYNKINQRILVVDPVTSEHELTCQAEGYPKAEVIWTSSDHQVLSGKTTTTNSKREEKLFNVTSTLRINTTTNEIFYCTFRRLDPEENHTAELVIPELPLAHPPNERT

IC50 [nM] | SMILES
500 to 20000 | N#Cc1cncc(COc2cc(O[C@H]3CCc4c(-c5ccccc5F)cccc43)c(Cl)cc2CN[C@@H]2[C@@H]3CC[C@@H](C3)[C@@H]2C(=O)O)c1 [Example 2.174]
100 to 500 | OC1CCN(Cc2cc(Cl)c(O[C@H]3CCc4c(-c5ccccc5F)cccc43)cc2OCc2cnc(Cl)nc2)CC1 [Example 2.111]
100 to 500 | COc1cccc(-c2cccc3c2CC[C@@H]3Oc2cc(OCc3cncc(C#N)c3)c(CN3CCC(O)CC3)cc2Cl)c1F [Example 2.052]
< 100 | COc1cc(O[C@H]2CCc3c(-c4cccc(OC)c4F)cccc32)c(Cl)cc1CN[C@@H](CO)C(=O)O [Example 2.040]
500 to 20000 | OC1CCN(Cc2cc(Cl)c(O[C@H]3CCc4c(-c5ccccc5F)cccc43)cc2OCc2cccnc2)CC1 [Example 2.116]
500 to 20000 | COc1cccc(-c2cccc3c2CC[C@@H]3Oc2cc(OCc3cncc(C#N)c3)c(CNCc3noc(=O)[nH]3)cc2Cl)c1F [Example 2.054]
500 to 20000 | COc1cc(O[C@H]2CCc3c(-c4cccc(OC)c4F)cccc32)c(Cl)cc1CN1CC(O)C1 [Example 2.041]
< 100 | N#Cc1cncc(-c2cc(O[C@H]3CCc4c(-c5ccccc5F)cccc43)c(Cl)cc2CN[C@@H](CO)C(=O)O)c1 [Example 2.115]
< 100 | N#Cc1cncc(COc2cc(O[C@H]3CCc4c(-c5ccc6c(c5)OCCO6)cccc43)c(Cl)cc2CN[C@@H](CO)C(=O)O)c1 [Example 2.024]
500 to 20000 | Cc1cccc(-c2cccc3c2CC[C@@H]3Oc2cc(OCc3cncc(C#N)c3)c(CN[C@@H](CO)C(=O)O)cc2Cl)c1 [Example 2.012]
100 to 500 | COc1cccc(-c2cccc3c2CC[C@@H]3Oc2cc(OCc3cncc(C#N)c3)c(CN3CCC(C(N)=O)CC3)cc2Cl)c1Cl [Example 2.083]
500 to 20000 | COc1cccc(-c2cccc3c2CCC3CCOc2cc(OCc3cncc(C#N)c3)c(CN3CCC(O)CC3)cc2Cl)c1F (stereo not drawn) [Example 2.086]
< 100 | CCOc1cc(O[C@H]2CCc3c(-c4ccccc4F)cccc32)c(Cl)cc1CNC(CO)(CO)CO [Example 2.164]
100 to 500 | N#Cc1cncc(COc2cc(O[C@H]3CCc4c(-c5ccccc5F)cccc43)c(Cl)cc2CNCC(N)=O)c1 [Example 2.171]
< 100 | COc1ccc(F)c(-c2cccc3c2CC[C@@H]3Oc2cc(OCc3cncc(C#N)c3)c(CN[C@@H](CO)C(=O)O)cc2Cl)c1 [Example 2.045]
< 100 | N#Cc1cncc(COc2cc(O[C@H]3CCc4c(-c5ccccc5)cccc43)c(Cl)cc2CN2CC(C(=O)O)C2)c1 [Example 2.003]
< 100 | N#Cc1cncc(COc2cc(OC3CCc4c(-c5ccccc5)cccc43)c(Cl)cc2CN[C@@H](CO)C(=O)O)c1 (stereo partly drawn) [Example 1.001]
500 to 20000 | CN(C)c1cccc(-c2cccc3c2CC[C@@H]3Oc2cc(OCc3cncc(C#N)c3)c(CN[C@@H](CO)C(=O)O)cc2Cl)c1 [Example 2.027]
100 to 500 | N#Cc1cncc(COc2cc(O[C@H]3CCc4c(-c5ccccc5)cccc43)c(Cl)cc2CN2CC(O)C2)c1 [Example 2.001]
< 100 | N#Cc1cncc(COc2cc(O[C@H]3CCc4c(-c5ccccc5F)cccc43)c(Cl)cc2CN[C@@H](CO)C(=O)O)c1 [Example 2.004]

IC50 [nM] | SMILES
100 to 500 | COc1ccc(-c2cccc3c2CC[C@@H]3Oc2cc(OCc3cncc(C#N)c3)c(CN[C@@H](CO)C(=O)O)cc2Cl)c(F)c1 [Example 2.044]
500 to 20000 | COC(=O)c1cccc(COc2cc(O[C@H]3CCc4c(-c5ccccc5F)cccc43)c(Cl)cc2CN2CCC(O)CC2)c1 [Example 2.089]
< 100 | COc1ccc(Cl)c(-c2cccc3c2CC[C@@H]3Oc2cc(OCc3cncc(C#N)c3)c(CN[C@@H](CO)C(=O)O)cc2Cl)c1 [Example 2.065]
< 100 | COC(=O)[C@H](CO)NCc1cc(Cl)c(O[C@H]2CCc3c(-c4ccccc4F)cccc32)cc1OCc1cncc(C#N)c1 [Example 2.140]
100 to 500 | CC(C)C[C@H](NCc1cc(Cl)c(O[C@H]2CCc3c(-c4ccccc4F)cccc32)cc1OCc1cncc(C#N)c1)C(=O)O [Example 2.091]
500 to 20000 | CC(C)(CNCc1cc(Cl)c(O[C@H]2CCc3c(-c4ccccc4)cccc32)cc1OCc1cncc(C#N)c1)C(=O)O [Example 1.013]
500 to 20000 | COc1ccccc1-c1cccc2c1CC[C@@H]2Oc1cc(OCc2cncc(C#N)c2)c(CN[C@@H](CO)C(=O)O)cc1Cl [Example 2.009]
100 to 500 | N#Cc1cncc(COc2cc(OC3CCc4c(-c5ccccc5)cccc43)c(Cl)cc2CNC[C@@H](O)CC(=O)O)c1 (stereo partly drawn) [Example 1.002]
100 to 500 | CCOc1cc(O[C@H]2CCc3c(-c4ccccc4F)cccc32)c(Cl)cc1CN[C@H](CO)C(=O)O [Example 2.156]
500 to 20000 | O=C(O)[C@H](CO)NCc1cc(Cl)c(OC2CCc3c(-c4ccccc4)cccc32)cc1OCc1cccnc1 (stereo partly drawn) [Example 1.011]
100 to 500 | N#Cc1cncc(COc2cc(O[C@H]3CCc4c(-c5ccccc5F)cccc43)c(Cl)cc2CNCc2nc(=O)o[nH]2)c1 [Example 2.150]
< 100 | COc1cccc(-c2cccc3c2CC[C@@H]3Oc2cc(OCc3cncc(C#N)c3)c(CN3C[C@H](O)C[C@@H]3C(=O)O)cc2Cl)c1F [Example 2.073]
100 to 500 | COc1cc(O[C@H]2CCc3c(-c4ccccc4)cccc32)c(Cl)cc1CN[C@@H](CO)C(=O)O [Example 2.007]
500 to 20000 | COc1cccc(-c2cccc3c2CC[C@@H]3Oc2cc(OCc3cncc(C#N)c3)c(CNCc3ccc(B(O)O)cc3)cc2Cl)c1F [Example 2.066]
< 100 | N#Cc1cncc(COc2cc(O[C@@H]3c4cccc(-c5ccccc5F)c4C[C@H]3F)c(Cl)cc2CN[C@@H](CO)C(=O)O)c1 [Example 2.147]
100 to 500 | N#Cc1cncc(COc2cc(O[C@H]3CCc4c(-c5ccccc5)cccc43)c(Cl)cc2CNCCn2nn[nH]c2=O)c1 [Example 1.010]
500 to 20000 | COc1cccc(-c2cccc3c2CC[C@@H]3Oc2cc(OCc3cncc(C#N)c3)c(CNCCS(N)(=O)=O)cc2Cl)c1F [Example 2.078]
< 100 | N#Cc1cncc(COc2cc(O[C@H]3CCc4c(-c5ccc6c(c5F)OCCO6)cccc43)c(Cl)cc2CN2CC(O)C2)c1 [Example 2.070]
100 to 500 | CC(C)(O)CNCc1cc(Cl)c(O[C@H]2CCc3c(-c4ccccc4F)cccc32)cc1OCc1cncc(C#N)c1 [Example 2.143]

Same assay, conditions: Table 3; plate-coated human PD-L1, biotinylated human PD-1; read-out: ELISA IC50

IC50 [nM] | SMILES
100 to 500 | N#Cc1cncc(COc2cc(O[C@H]3CCc4c(-c5ccc6c(c5F)OCCO6)cccc43)c(Cl)cc2CN[C@H]2CCCC[C@@H]2C(=O)O)c1 [Example 3.036]
500 to 20000 | N#Cc1cncc(COc2cc(O[C@H]3CCc4c(-c5ccccc5F)cccc43)c(Cl)cc2CNC2CC(=O)NC(=O)C2)c1 [Example 3.065]
500 to 20000 | N#Cc1cncc(COc2cc(O[C@H]3CCc4c(-c5ccc6ccccc6c5)cccc43)c(Cl)cc2CN[C@@H](CO)C(=O)O)c1 [Example 3.125]
100 to 500 | N#Cc1cncc(COc2cc(O[C@H]3CCc4c(-c5ccccc5F)cccc43)c(Cl)cc2CNCCCN2CCS(=O)(=O)CC2)c1 [Example 3.051]
100 to 500 | CC(N[C@@H](CO)C(=O)O)c1cc(Cl)c(O[C@H]2CCc3c(C4=CCCC4)cccc32)cc1OCc1cncc(C#N)c1 (stereo partly drawn) [Example 3.112]
100 to 500 | N#Cc1cncc(COc2cc(O[C@H]3CCc4c(-c5ccccc5O)cccc43)c(Cl)cc2CN[C@@H](CO)C(=O)O)c1 [Example 3.079]
500 to 20000 | CC(N[C@@H](CO)C(=O)O)c1cc(Cl)c(O[C@H]2CCc3c(-c4ccc(O)cc4)cccc32)cc1OCc1cncc(C#N)c1 (stereo partly drawn) [Example 3.111]
100 to 500 | N#Cc1cncc(COc2cc(O[C@H]3CCc4c(-c5ccccc5F)cccc43)c(Cl)cc2CN[C@H](CCCNC(=N)N)C(=O)O)c1 [Example 3.098]
< 100 | N#Cc1cc(Cl)cc(COc2cc(O[C@H]3CCc4c(-c5ccc6c(c5F)OCCO6)cccc43)c(Cl)cc2CN[C@@H](CO)C(=O)O)c1 [Example 3.015]
< 100 | C[C@H](NC(=O)[C@H](CO)NCc1cc(Cl)c(O[C@H]2CCc3c(-c4ccccc4F)cccc32)cc1OCc1cncc(C#N)c1)C(=O)O [Example 3.049]
100 to 500 | Cn1ccnc1CNCc1cc(Cl)c(O[C@H]2CCc3c(-c4ccccc4F)cccc32)cc1OCc1cncc(C#N)c1 [Example 3.075]
< 100 | N#Cc1cncc(COc2cc(O[C@H]3CCc4c(-c5ccc6c(c5F)OCCO6)cccc43)c(Cl)cc2CN[C@H](CO)C(=O)O)c1 [Example 3.054]
< 100 | N#Cc1cncc(COc2cc(O[C@H]3CCc4c(-c5ccccc5F)cccc43)c(Cl)cc2CN[C@H](CC(N)=O)C(=O)O)c1 [Example 3.104]
100 to 500 | CC(C)c1nccn1CCCNCc1cc(Cl)c(O[C@H]2CCc3c(-c4ccccc4F)cccc32)cc1OCc1cncc(C#N)c1 [Example 3.090]
100 to 500 | Cc1cc(C#N)cc(COc2cc(O[C@H]3CCc4c(-c5ccccc5F)cccc43)c(Cl)cc2CN[C@@H](CO)C(=O)O)c1 [Example 3.055]
< 100 | N#Cc1cncc(COc2cc(O[C@H]3CCc4c(-c5ccccc5CO)cccc43)c(Cl)cc2CN[C@@H](CO)C(=O)O)c1 [Example 3.127]
< 100 | CN(C)CCCCCNCc1cc(Cl)c(O[C@H]2CCc3c(-c4ccccc4F)cccc32)cc1OCc1cncc(C#N)c1 [Example 3.080]
< 100 | N#Cc1cncc(COc2cc(O[C@H]3CCc4c(-c5ccccc5F)cccc43)c(Cl)cc2CNCCO)c1 [Example 3.128]
500 to 20000 | COCc1ccccc1-c1cccc2c1CC[C@@H]2Oc1cc(OCc2cncc(C#N)c2)c(CN[C@@H](CO)C(=O)O)cc1Cl [Example 3.115]
500 to 20000 | CCc1cc(CNCc2cc(Cl)c(O[C@H]3CCc4c(-c5ccccc5F)cccc43)cc2OCc2cncc(C#N)c2)on1 [Example 3.085]

SMILES | IC50 [nM]
N#Cc1cc(COc2cc(O[C@H]3CCc4c(-c5cccc(O)c5F)cccc43)c(Cl)cc2CN[C@@H](CO)C(=O)O)cc(NC=O)c1 [Example 3.020] | < 100
